Data: PMC5927802, “Pharmacokinetics, safety, and tolerability of the 2‐ and 3‐direct‐acting antiviral combination of AL‐335, odalasvir, and simeprevir in healthy subjects” (Pharmacology Research & Perspectives, 2018)
Like-named read-outs stand apart in the source and are kept apart here. Blank lines part the entries; values can stand above or below the compound they belong to.

What was measured:
[1] = Plasma pharmacokinetics, Phase I open‐label two‐group fixed‐sequence drug‐drug interaction study; details: for AUC0‐24 h LSM ratio / C max LSM ratio: point estimate (90% CI); for AUC: AUC0‐24 h; for Tmax: T max
From the text: This was an open‐label, two‐group, fixed‐sequence study conducted at a single study center in Rennes, France (Biotrial). A two‐group, fixed‐sequence study design was chosen as this was deemed to be the most efficient way to evaluate the effect of simeprevir with/without odalasvir on AL‐335; and vice versa (Group 1) and the effect of odalasvir with/without simeprevir on AL‐335; and vice versa (Group 2). Thus, this study design had the potential to gather both 2‐way and 3‐way DDIs. For both groups, the study consisted of a screening period, a study period, and two follow‐up visits. The study was authorized by the French National Agency for the Safety of Medicine and Health Products (ANSM) and was approved by an Independent Ethics Committee (Comité de Protection des Personnes [CPP] Ouest VI, Brest, France; Reference CPP Ouest 6–CPP 888/MS1), and was conducted in accordance with the principles of the Declaration of Helsinki and International Conference on Harmonization. All subjects provided written informed consent to participate. Drug and molecular target nomenclature in this manuscript conforms to the British Journal of Pharmacology's Concise Guide to Pharmacology 2017/18.19
Subjects in Group 1 received simeprevir 150 mg QD on days 4‐23, odalasvir 150 mg (loading dose) on day 14, odalasvir 50 mg QD on days 15‐23, and AL‐335 800 mg QD on days 1‐3, 11‐13, and 21‐23. Subjects in Group 2 received odalasvir 150 mg (loading dose) on day 4, odalasvir 50 mg QD on days 5‐23, simeprevir 150 mg QD on days 14‐23, and AL‐335 800 mg QD on days 1‐3, 11‐13, and 21‐23. […] A minimum of 10 days was considered sufficient for both odalasvir and simeprevir to reach steady‐state.
Subjects were assigned sequentially to Group 1 then to Group 2 after confirming eligibility.
As this was an […] pharmacokinetic study, blood samples for pharmacokinetic analysis were collected predose and at 0.25, 0.5, 1, 2, 3, 4, 6, 8, 10, 12, and 24 hours postdose on days 3, 13, and 23 for determination of AL‐335, ALS‐022399, and ALS‐022227 plasma concentrations (Groups 1 and 2). For simeprevir, blood samples for determination of simeprevir plasma concentrations were taken at the same time points but on days 10, 13, 20, and 23 (Group 1) or days 20 and 23 (Group 2). Blood samples for the determination of odalasvir plasma concentrations were collected predose and at 1, 3, 4, 5, 6, 7, 8, 9, 10, 12, 16, and 24 hours postdose on days 20 and 23 (Group 1) or days 10, 13, 20, and 23 (Group 2), with two further samples also collected on the day 7 and day 28 follow‐up assessments (both groups).
Plasma concentrations of AL‐335, ALS‐022399, ALS‐022227, odalasvir, and simeprevir were determined using validated liquid chromatography‐tandem mass spectrometry methods. Dichlorvos solution was added to blood samples from AL‐335‐treated subjects to stabilize AL‐335 and its metabolites (25 μL of 5 mmol/L dichlorvos into 1 mL blood). The lower limit of quantification was 1 ng/mL, 2 ng/mL, and 5 ng/mL for AL‐335, ALS‐022399, and ALS‐022227, respectively, 1 ng/mL for odalasvir, and 2 ng/mL for simeprevir.
Pharmacokinetic analyses were performed on all subjects with available profiles who received at least one dose of study drug without any protocol deviation affecting pharmacokinetic evaluation. […] Secondary parameters were last observed plasma concentration, apparent elimination half‐life, time of the maximum observed plasma concentration (T max), and time to last measurable plasma concentration (T last).

[2] = system: P‐glycoprotein; details: cited from earlier work
[3] = system: OATP1B1/1B3; details: cited from earlier work
[4] = in vivo; cited from earlier work
[5] = system: breast cancer resistance protein (BCRP); details: ref data on file; cited from earlier work
[6] = system: CYPs 1A2, 2B6, 2C8, 2C9, 2C19, 2D6, and 3A4; set-up: method as in data on file; details: ref data on file; cited from earlier work
[7] = system: host polymerases, including the mitochondrial RNA polymerase; details: cited from earlier work
[8] = Group 1 Day 3, AL‐335 alone, mean (SD)
[9] = Group 1 Day 13, AL‐335 + SMV, mean (SD)
[10] = Group 1 Day 23, AL‐335 + ODV + SMV versus AL‐335 alone
[11] = Group 1 Day 23, AL‐335 + ODV + SMV, mean (SD)
[12] = Group 2 Day 3, AL‐335 alone, mean (SD)
[13] = Group 2 Day 13, AL‐335 + ODV, mean (SD)
[14] = Group 2 Day 23, AL‐335 + ODV + SMV versus AL‐335 alone
[15] = Group 2 Day 23, AL‐335 + ODV + SMV, mean (SD)

difference in T max between any of the treatment combinations ([1]; human, in vivo): No clinically relevant difference | t 1/2 ([1]; human, in vivo): 6.0 (0.5) h
Structure (SMILES): C[C@]1(O)[C@H](n2ccc(=O)[nH]c2=O)O[C@](F)(CO)[C@H]1O [ALS‐022227]
P‐glycoprotein substrate / inhibitor status [2]: neither substrates nor inhibitors | OATP1B1/1B3 substrate / inhibitor status [3]: neither substrates nor inhibitors

AUC0‐24 h ([1]; human, in vivo): 8694 (3956) ng.h/mL | C max ([1]; human, in vivo): 582 (221) ng/mL | T max ([1]; human, in vivo): 5.00 (5.0‐7.0) h | increase in exposure (C max, C min, AUC0‐24 h) ([1]; human, in vivo): 1.5‐ to 2 | C min ([1]; in vivo): 235 (132) ng/mL | Clast ([1]; in vivo): 287 (150) ng/mL | T last ([1]; in vivo): 23.9 (23.9‐24.0) h
Structure (SMILES): COC(=O)N[C@H](C(=O)N1[C@H](c2nc3cc(-c4cc5ccc4CCc4ccc(c(-c6ccc7[nH]c([C@@H]8C[C@@H]9CCCC[C@@H]9N8C(=O)[C@@H](NC(=O)OC)C(C)C)nc7c6)c4)CC5)ccc3[nH]2)C[C@@H]2CCCC[C@@H]21)C(C)C [odalasvir]
clearance route and metabolism [4]: primarily cleared by biliary secretion and undergoes minimal metabolism | drug‐drug interactions (DDIs) [4]: No clinically significant drug‐drug interactions | terminal elimination half‐life [4]: approximately 250 hours

Structure (SMILES): CC(C)OC(=O)[C@H](C)N[P@](=O)(OC[C@@]1(F)O[C@@H](n2ccc(=O)[nH]c2=O)[C@](C)(O)[C@@H]1O)Oc1ccccc1 [AL‐335]
difference in T max between any of the treatment combinations ([1]; AL‐335 alone or with odalasvir and/or simeprevir): No clinically relevant difference | C last [1, 8]: 6 (8) ng/mL | C max [1, 8]: 162 (77) ng/mL | T last ([1]; Group 1 Day 3, AL‐335 alone, median (range)): 6.00 (4.00‐6.00) h | C last [1, 9]: 3 (2) ng/mL | C max [1, 9]: 376 (186) ng/mL | T last ([1]; Group 1 Day 13, AL‐335 + SMV, median (range)): 8.00 (6.00‐10.00) h | AUC0‐24 h LSM ratio [1, 10]: 6.92 (5.46‐8.77) | C max LSM ratio [1, 10]: 4.60 (3.68‐5.75) | C last [1, 11]: 3 (1) ng/mL | C max [1, 11]: 747 (340) ng/mL | T last ([1]; Group 1 Day 23, AL‐335 + ODV + SMV, median (range)): 8.00 (6.00‐10.08) h | C last [1, 12]: 3 (2) ng/mL | C max [1, 12]: 151 (72) ng/mL | T last ([1]; Group 2 Day 3, AL‐335 alone, median (range)): 6.00 (4.00‐8.00) h | C last [1, 13]: 2 (1) ng/mL | C max [1, 13]: 516 (259) ng/mL | T last ([1]; Group 2 Day 13, AL‐335 + ODV, median (range)): 8.00 (4.00‐12.00) h | AUC0‐24 h LSM ratio [1, 14]: 8.23 (6.26‐10.82) | C max LSM ratio [1, 14]: 6.30 (4.93‐8.05) | C last [1, 15]: 2 (1) ng/mL | C max [1, 15]: 950 (472) ng/mL | T last ([1]; Group 2 Day 23, AL‐335 + ODV + SMV, median (range)): 10.00 (8.00‐12.03) h | AUC ([1]; human, in vivo, 800 mg, Group 1 Day 3, AL‐335 alone, mean (SD)): 295 ng·h/mL | AUC ([1]; human, in vivo, 800 mg, Group 2 Day 3, AL‐335 alone, mean (SD)): 324 ng·h/mL | Tmax ([1]; human, in vivo, 800 mg, Group 1 Day 3, AL‐335 alone, median (range)): 2 h | Tmax ([1]; human, in vivo, 800 mg, Group 2 Day 3, AL‐335 alone, median (range)): 2 h | half-life ([1]; human, in vivo, 800 mg, t 1/2, Group 1 Day 3, AL‐335 alone, mean (SD)): 0.61 h | half-life ([1]; human, in vivo, 800 mg, t 1/2, Group 2 Day 3, AL‐335 alone, mean (SD)): 0.69 h | AUC ([1]; human, in vivo, Group 1 Day 13, AL‐335 + SMV, mean (SD)): 1000 ng·h/mL | AUC ([1]; human, in vivo, Group 1 Day 23, AL‐335 + ODV + SMV, mean (SD)): 2080 ng·h/mL | AUC ([1]; human, in vivo, Group 2 Day 13, AL‐335 + ODV, mean (SD)): 1330 ng·h/mL | AUC ([1]; human, in vivo, Group 2 Day 23, AL‐335 + ODV + SMV, mean (SD)): 2920 ng·h/mL | Tmax ([1]; human, in vivo, Group 1 Day 13, AL‐335 + SMV, median (range)): 2 h | Tmax ([1]; human, in vivo, Group 1 Day 23, AL‐335 + ODV + SMV, median (range)): 2 h | Tmax ([1]; human, in vivo, Group 2 Day 13, AL‐335 + ODV, median (range)): 2 h | Tmax ([1]; human, in vivo, Group 2 Day 23, AL‐335 + ODV + SMV, median (range)): 3 h | half-life ([1]; human, in vivo, t 1/2, Group 1 Day 13, AL‐335 + SMV, mean (SD)): 0.64 h | half-life ([1]; human, in vivo, t 1/2, Group 1 Day 23, AL‐335 + ODV + SMV, mean (SD)): 0.69 h | half-life ([1]; human, in vivo, t 1/2, Group 2 Day 13, AL‐335 + ODV, mean (SD)): 0.62 h | half-life ([1]; human, in vivo, t 1/2, Group 2 Day 23, AL‐335 + ODV + SMV, mean (SD)): 0.84 h | AUC 0‐24 h increase ([1]; odalasvir given alone with AL‐335 (abstract)): 3 fold | AUC 0‐24 h increase ([1]; simeprevir given alone with AL‐335 (abstract)): 4 fold | BCRP substrate status [5]: substrate | inhibition potential for CYPs [6]: low inhibition potential | OATP1B1/1B3 substrate / inhibitor status ([3]; ref data on file): neither a substrate nor an inhibitor | interaction with host polymerases [7]: do not interact
